Measured values reported in US7888527B2 (University of Virginia Patent Foundation, priority 2004, dated 2011).
Entries after “also recorded” stand apart in the source; their conditions may differ.

Legend:
S1P2 receptor = molecular target: T1, S1P2 receptor (Homo sapiens, UniProt O95136); experiment: [γ-35S]GTP binding assay, HEK293T membranes; assay type: biochemical
T1 construct: expressed in transfected cells; host or cells: HEK293T, transient transfection; membranes
Description: (§1) The appropriate receptor plasmid DNA (encoding human S1P1, human S1P2, human S1P3, human S1P4, human S1P5, human LPA1, human LPA2 or human LPA3 receptors) is mixed with equal amounts of expression plasmids encoding human Gi2α (for S1P3, a mutated (C352F) rat Gi2α is used), cow β1, and cow γ2 proteins, and these DNAs are used to transfect monolayers of HEK293T cells (where ‘T’ indicates expression of the SV-40 virus large T antigen) using the calcium phosphate precipitate method (7). After about 60 hours, cells are harvested, membranes prepared, aliquoted, and stored at −70° C. until use (8).
(§2) The [γ-^35S]GTP binding assay is performed as described previously (8). Membranes containing 1-5 μg of protein are incubated in 0.1 ml of binding buffer (in mM: HEPES/50, NaCl/100, MgCl2/10, pH 7.5) containing 5 μg of saponin, 10 μM GDP, 0.1 nM [γ-^35S]GTP (1200 Ci/mmol), and indicated lipid(s) for 30 min at 30° C. and collected using a Brandel Cell Harvester (Gaithersburg, Md.). Samples are then analyzed for bound radionuclide.
(§3) Statistical Analysis. The EC50 and IC50 values for all dose response curves were determined by nonlinear regression analysis of all data using the Graphpad Prism© program. The error associated with the data collected is reported as the standard error of the mean (S.E.M).

human S1P3 receptor [1] = molecular target: T2, human S1P3 receptor (Homo sapiens, UniProt Q99500); experiment: Intracellular calcium mobilization, T24 cells transfected stably with human S1P3 receptor; assay type: cell-based; design: expressed in transfected cells
Method: […] monolayers are co-transfected with the human S1P1, S1P2, S1P3 receptor encoding DNAs and the pIRESpuro2 plasmid DNA (Clontech, San Jose, Calif.,) using either Lipofectamine 2000 (Invitrogen, Carlsbad, Calif.) or FuGENE 6 (Roche Applied Science, Indianapolis, Ind.). Clonal populations expressing the puromycin acetyltransferase gene are selected by addition of puromycin (Sigma-Aldrich, St. Louis, Mo.) to the culture media. T24 cells are grown in monolayers at 37° C. in a 5% CO2/95% air atmosphere in growth media consisting of: 95% DMEM/F-12 medium and 10% charcoal/dextran stripped FBS.
A FlexStation™ fluorimeter (Molecular Devices, Menlo Park, Calif.) was used to measure intracellular calcium in native T24 cells and T24 cells transfected stably with either human S1P2 or human S1P3 receptor DNA. Cells were seeded (˜50,000 cells/well) in 96-well, clear bottom black microplates (Corning Costar Corp.) and left overnight at 37° C. The cells were dye-loaded with 4 μM Fluo-4AM ester in a loading buffer (Hank's Balanced Salt Solution, […], containing 20 mM HEPES, 0.1% fatty acid free BSA, and 2.5 mM probenecid) for 30 minutes at 37° C. After washing cell monolayers three times with phosphate buffered saline, loading buffer was added and the cells exposed to sets of compounds for 3 minutes at 25° C. in the FlexStation™. In all cases, each concentration of every compound was tested in at least triplicate. […] The cells were washed with phosphate buffered saline and exposed to compounds immediately, as described above.
(§4) Briefly, nonlinear analysis of the best-fit line generated by plotting the negative log of the EC50 values obtained from agonist dose-response curves, in the absence and presence of varying concentrations of antagonist, was plotted against the concentration of antagonist to give the Kb value.

human S1P3 receptor [2] = molecular target: T2, human S1P3 receptor; experiment: [γ-35S]GTP binding assay, HEK293T membranes (agonism and Schild antagonism); assay type: biochemical; design: expressed in transfected cells; host or cells: HEK293T, transient transfection; membranes
Description: as §1, §2, §4, §3

human S1P3 receptor [3] = molecular target: T2, human S1P3 receptor; experiment: [32P]S1P binding assay, HEK293T membranes; design: expressed in transfected cells; host or cells: HEK293T, transient transfection; membranes; conditions: read-out: pKi S1P3 (converted)
Method: (§5) [^32P]-S1P was prepared by incubating sphingosine and [γ-^32P]ATP with cell lysate from HEK293T cells transiently transfected with human sphingosine kinase type 2 DNA. The 200 μl reaction contained 0.025 mM sphingosine, 1 mCi [γ-^32P]ATP (7000 Ci/mmol) and kinase buffer (in mM: Mg(C2H3O2)2 (in 50 mM Tris, pH 7.5)/10, NaF/10, and semicarbizide/2). The reaction was initiated by the addition of 20 μg of cell lysate and incubated at 37° C. for at least 30 minutes. […] The organic layer was isolated and the extraction procedure repeated two additional times with the remaining aqueous fraction. The combined organic fractions were dried under a stream of nitrogen gas and resuspended in aqueous 0.1% fatty acid free BSA.
(§6) Bound ligand was separated from free ligand by rapid filtration and analyzed in a liquid scintillation counter.
as §3

human S1P1 receptor = human S1P1 receptor (Homo sapiens, UniProt P21453); experiment: [32P]S1P binding assay, HEK293T membranes; design: expressed in transfected cells; host or cells: HEK293T, transient transfection; membranes; conditions: read-out: pKi S1P1 (converted)
Method: as §5, §6, §3

T1 sequence (O95136 whole entry): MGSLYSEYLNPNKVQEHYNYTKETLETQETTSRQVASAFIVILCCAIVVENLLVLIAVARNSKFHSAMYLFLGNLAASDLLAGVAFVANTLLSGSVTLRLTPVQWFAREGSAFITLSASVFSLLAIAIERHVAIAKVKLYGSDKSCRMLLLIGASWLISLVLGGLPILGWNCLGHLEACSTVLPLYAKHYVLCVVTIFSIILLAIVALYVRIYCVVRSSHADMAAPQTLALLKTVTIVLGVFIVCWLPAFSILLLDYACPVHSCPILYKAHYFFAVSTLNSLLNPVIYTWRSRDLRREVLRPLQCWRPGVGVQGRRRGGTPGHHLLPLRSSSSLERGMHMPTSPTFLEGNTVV
T2 sequence (Q99500 whole entry): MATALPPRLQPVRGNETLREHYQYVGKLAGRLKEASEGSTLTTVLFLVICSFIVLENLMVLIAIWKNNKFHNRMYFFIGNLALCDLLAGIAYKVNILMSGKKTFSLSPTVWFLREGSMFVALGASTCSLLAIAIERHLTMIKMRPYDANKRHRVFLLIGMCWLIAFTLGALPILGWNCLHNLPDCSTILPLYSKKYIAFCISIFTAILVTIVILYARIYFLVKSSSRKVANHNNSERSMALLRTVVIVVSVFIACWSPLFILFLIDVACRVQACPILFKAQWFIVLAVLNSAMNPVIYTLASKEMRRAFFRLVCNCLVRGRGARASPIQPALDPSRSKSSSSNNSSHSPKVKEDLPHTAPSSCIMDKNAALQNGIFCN
human S1P1 receptor, sequence (P21453 whole entry): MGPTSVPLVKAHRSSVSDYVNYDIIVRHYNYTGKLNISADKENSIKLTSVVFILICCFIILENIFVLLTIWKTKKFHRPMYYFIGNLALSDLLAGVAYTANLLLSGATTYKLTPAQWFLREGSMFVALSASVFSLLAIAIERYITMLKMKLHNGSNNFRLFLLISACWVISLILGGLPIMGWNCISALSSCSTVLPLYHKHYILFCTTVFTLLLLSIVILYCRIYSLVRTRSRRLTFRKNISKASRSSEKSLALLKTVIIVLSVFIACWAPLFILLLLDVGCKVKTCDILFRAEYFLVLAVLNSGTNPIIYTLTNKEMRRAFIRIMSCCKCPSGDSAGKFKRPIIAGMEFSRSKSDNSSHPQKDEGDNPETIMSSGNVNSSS

SMILES: CCCCCCCCc1cccc(NC(=O)[C@H](N)COP(=O)(O)O)c1 [VPC23019]
- Activity at the S1P2 receptor (S1P2 receptor): devoid of agonist activity
- EC50 (S1P2 receptor; -log molar concentration giving 50% of maximal [γ-35S]GTP binding, ± S.E.M., read-out: pEC50 S1P2 (converted)): > 10000 nM
- Agonist or antagonist activity at the human S1P2 receptor (S1P2 receptor; concentrations up to 10 micromolar): inactive as either an agonist or antagonist
- Reversibility of antagonism after washout, Ca2+ mobilization (human S1P3 receptor [1]; 10000 nM VPC23019 pre-treatment followed by washout): recovered fully
- Competitive behaviour in calcium mobilization assay (nonlinear regression) (human S1P3 receptor [1]; T24-S1P3 cells): did not behave as a competitive antagonist
- Calcium mobilization by compound alone (human S1P3 receptor [1]; T24-S1P3 cells versus wild-type T24 cells): not a result of stimulation of the S1P3 receptor
- Agonist activity at the S1P3 receptor (human S1P3 receptor [2]): lacked agonist activity
- Inverse agonism profile at S1P3 (human S1P3 receptor [2]; VPC23019 concentrations greater than 100 nM): a profile suggesting inverse agonism
- Antagonism of S1P at the S1P3 receptor (human S1P3 receptor [2]; [γ-35S]GTP binding, S1P with increasing VPC23019, Lew and Angus regression): dose-dependent, parallel rightward shift; also recorded: competitive antagonist
- Kb (human S1P3 receptor [2]; read-out: pKb S1P3 (converted)): 1050 nM
- Agonist efficacy class S1P3 (human S1P3 receptor [2]; relative to S1P Emax): na (no agonist activity (<10% of S1P Emax))
- Ki (human S1P3 receptor [3]): 1170 nM
- Ki (human S1P1 receptor): 13.8 nM
